{"source": "patent US20250092383A1", "about": "“COMPOUNDS AND METHODS FOR FBXO22-MEDIATED PROTEIN DEGRADATION” (Northwestern University, priority 2023, published 2025)", "key": {"FKBP12-EGFP": {"molecular_target": "T1, FKBP12-EGFP (Homo sapiens, UniProt P62942)", "T1 construct": "expressed in transfected cells", "assay": "Fluorescence quantification of FKBP12-EGFP levels in HEK293T cells", "type": "cell-based", "conditions": "HEK293T CRISPR activation cells with FBXO22-activating sgRNAs; 2 μM, 24 hours", "experimental": "FIGS. 1A-1E show an E3 ligase focused CRISPR-Cas9 transcriptional activation screen identifies FBXO22 that supports 22-SLF-induced reduction in FKBP12-EGFP expression levels. FIG. 1A is a schematic representation of the steps in the CRISPR-Cas9 transcriptional activation screen. […] FIG. 1C is a volcano plot showing the E3 ligase focused CRISPR-Cas9 transcriptional activation screen for FKBP12-EGFP degradation after treatment of 2 μM 22-SLF in HEK293T CRISPR-Cas9 transcriptional activation cells for 24 hours. […] The statistical significance was evaluated through unpaired two-tailed Student's t-tests, comparing cells transduced with FBXO22 sgRNA to control sgRNA. Statistical significance denoted ****P<0.0001. […] The statistical significance was evaluated through unpaired two-tailed Student's t-tests, comparing cells treated with 22-SLF to DMSO. Statistical significance denoted as ***P<0.001 and ns: not significant.\nFIGS. 6A-6E show generation of CRISPR-Cas9 transcriptional activation cells for the discovery of E3 ligases supporting the degradation of FKBP12-EGFP. […] The statistical significance was evaluated through unpaired two-tailed Student's t-tests, comparing cells treated with Len-SLF or SLF to DMSO. […] The statistical significance was evaluated through unpaired two-tailed Student's t-tests, comparing cells transduced with IL-1β sgRNA to control sgRNA. […]"}, "FKBP12 [1]": {"molecular_target": "T2, FKBP12 (Homo sapiens, UniProt P62942)", "T2 sequence (P62942 whole entry)": "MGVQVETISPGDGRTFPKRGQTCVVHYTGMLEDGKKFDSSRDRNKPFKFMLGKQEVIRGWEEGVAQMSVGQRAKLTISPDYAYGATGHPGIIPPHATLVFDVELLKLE", "assay": "Degradation of endogenous FKBP12 in cancer cell lines, wild type vs FBXO22 knockout", "type": "cell-based", "experimental": "(§1) The bar graph represents quantification of the FLAG-FKBP12/HSP90 protein content. Data are presented as the mean values±s.e.m. […] HEK293T cells expressing HA-FBXO22 were treated with 0.025-15 μM 22-SLF for 8 h. The graph represents quantification of the FLAG-FKBP12/HSP90 protein content. Data are presented as the mean values (n=2 biological independent samples). […] The bar graph represents quantification of the FLAG-FKBP12/HSP90 protein content. KO, knockout; WT, wild type. Data are presented as the mean values (n=2 biological independent samples). […] The bar graph represents quantification of the FLAG-FKBP12/HSP90 protein content. Data are presented as the mean values±s.e.m. […] The result is representative of two independent experiments with similar results. WCL, whole-cell lysate; IP, immunoprecipitate.\n(§2) Data is obtained from Gene Expression Profiling Interactive Analysis (GEPIA). […] KDM4A and KDM4B are two reported substrates of FBXO22.\n(§3) As an F-box protein, FBXO22 is a pivotal player in the context of tumor progression. FBXO22 has many oncogenic functions, including propelling the ubiquitination and subsequent degradation of a diverse spectrum of substrates, such as histone lysine demethylase 4 subfamily KDM4A/B, methylated p53, p21, PTEN, KLF4, and LKB1. […]"}, "FKBP12 and FBXO22 [2]": {"molecular_target": "T3, FKBP12 and FBXO22 (Homo sapiens, UniProt P62942+Q8NEZ5)", "T3 construct": "expressed in transfected cells; host or cells: HEK293T", "T3 sequence (P62942 2-108)": "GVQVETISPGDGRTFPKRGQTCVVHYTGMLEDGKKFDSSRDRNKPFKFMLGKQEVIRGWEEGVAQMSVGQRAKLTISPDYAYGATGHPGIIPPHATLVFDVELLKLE", "T3 sequence (Q8NEZ5 whole entry)": "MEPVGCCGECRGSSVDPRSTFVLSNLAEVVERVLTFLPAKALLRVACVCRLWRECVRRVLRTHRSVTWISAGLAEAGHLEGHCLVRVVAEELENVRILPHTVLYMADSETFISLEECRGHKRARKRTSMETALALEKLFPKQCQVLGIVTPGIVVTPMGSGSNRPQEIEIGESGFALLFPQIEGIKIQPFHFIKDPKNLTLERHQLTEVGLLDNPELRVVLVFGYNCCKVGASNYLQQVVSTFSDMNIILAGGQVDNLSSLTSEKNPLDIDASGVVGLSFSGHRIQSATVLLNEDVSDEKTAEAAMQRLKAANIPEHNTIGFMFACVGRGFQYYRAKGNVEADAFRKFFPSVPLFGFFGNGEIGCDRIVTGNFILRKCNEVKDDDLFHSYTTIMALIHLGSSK", "T3 sequence (P63208 whole entry partner)": "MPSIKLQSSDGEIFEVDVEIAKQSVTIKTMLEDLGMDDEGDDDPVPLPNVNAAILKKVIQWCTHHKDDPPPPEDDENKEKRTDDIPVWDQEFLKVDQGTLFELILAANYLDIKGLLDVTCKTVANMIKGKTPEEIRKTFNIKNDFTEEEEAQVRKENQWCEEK", "assay": "Coimmunoprecipitation of HA-FBXO22 with FLAG-FKBP12 (ternary complex)", "type": "cell-based", "conditions": "HEK293T cells, with MG132", "from_the_text": "(§4) FIGS. 4A-4C show 22-SLF induces the formation of a ternary complex involving 22-SLF, FKBP12 and FBXO22. […] The bar graph represents quantification of the immunoprecipitated HA-FBXO22 protein content compared to the HA-FBXO22 protein in whole cell lysates (WCL). Data are presented as the mean values (n=2 biological independent samples). […] Data are presented as the mean values (n=2 biological independent samples).\n(§5) The formation of ternary complex by degraders with their target protein and E3 ligase drives the subsequent target degradation."}, "FKBP12 and FBXO22 [3]": {"molecular_target": "T4, FKBP12 and FBXO22 (Homo sapiens, UniProt P62942+Q8NEZ5, C227A/C228A)", "T4 construct": "expressed in transfected cells; host or cells: HEK293T", "T4 sequence (P62942 2-108)": "as the sequence (P62942 2-108) above", "T4 sequence (Q8NEZ5 whole entry C227A/C228A)": "as the sequence (Q8NEZ5 whole entry) above, with C227A, C228A counted along it", "T4 sequence (P63208 whole entry partner)": "as the sequence (P63208 whole entry partner) above", "assay": "Coimmunoprecipitation of HA-FBXO22 with FLAG-FKBP12 (ternary complex)", "type": "cell-based", "conditions": "HEK293T cells, with MG132", "from_the_text": "as §4, §5"}, "FKBP12 and FBXO22 [4]": {"test_system": "FKBP12 and FBXO22", "assay": "Coimmunoprecipitation of HA-FBXO22 with FLAG-FKBP12 (ternary complex)", "type": "cell-based, human", "conditions": "HEK293T cells, with MG132", "from_the_text": "as §4, §5"}, "FKBP12 [5]": {"molecular_target": "T2, FKBP12", "assay": "MS-based global proteomic analysis in A549 parental and FBXO22 knockout cells (FKBP12)", "type": "cell-based", "parameters": "expressed in transfected cells", "conditions": "2 μM, 24 hours", "experimental": "as §1, §2, §3"}}}
{"smiles": "CCC(C)(C)C(=O)C(=O)N1CCCC[C@H]1C(=O)O[C@H](CCc1ccc(OC)c(OC)c1)c1cccc(OCC(=O)NCCCOCCOCCOCCCN(C(=O)CCl)C(C(=O)NCc2ccccc2)c2nc3ccccc3s2)c1", "note": "(stereo partly shown) [22-SLF]", "values": [{"measurement": "FKBP12-EGFP expression in FBXO22-activated cells", "setting": "FKBP12-EGFP", "value": "loss of FKBP12-EGFP expression"}, {"measurement": "Degradation of endogenous FKBP12, wild-type cells", "setting": "FKBP12 [1]; A549, MDA-MB-231 and PC3, 2 μM in A549", "value": "promoted degradation of endogenous FKBP12"}, {"measurement": "Degradation of endogenous FKBP12, FBXO22 knockout cells", "setting": "FKBP12 [1]; A549, MDA-MB-231 and PC3 FBXO22 knockout", "value": "abolished upon FBXO22 knockout"}, {"measurement": "Ternary complex formation, FBXO22 wild type", "setting": "FKBP12 and FBXO22 [2]", "value": "HA-FBXO22 co-immunoprecipitated with FLAG-FKBP12"}, {"measurement": "Ternary complex assembly, FBXO22 C227AC228A double mutant", "setting": "FKBP12 and FBXO22 [3]", "value": "nearly completely abolished"}, {"measurement": "Ternary complex assembly, FBXO22 C227A or C228A single mutant", "setting": "FKBP12 and FBXO22 [4]", "value": "partially hindered"}, {"measurement": "Selectivity of FKBP12 degradation in global proteomics", "setting": "FKBP12 [5]", "value": "selective degradation of endogenous FKBP12 in FBXO22 wildtype, but not knockout context"}]}
